According to patent publication US9901596B2, “Regulation of body weight gain by using dibenzo-alpha-pyrones” (Natreon, Inc., priority 2013, dated 2018):

Assays:
Type in all cases: in vivo, C57/BL6 mice
[1] = Study 1: body weight gain in mice on standard laboratory diet, 12 weeks intragastric supplementation
Text: Materials Used: Shilajit (PrimaVie®, Natreon, Inc., New Brunswick, N.J.), a standardized dietary supplement ingredient extracted and processed from Shilajit bearing rocks, containing not less than about 50% by weight fulvic acids (FAs), at least about 10% by weight dibenzo-α-pyrone chromoproteins, and at least 0.3%, or more, by weight total dibenzo-α-pyrones (DBPs), 3-OH-DBP (99.0% purity, Natreon, Inc.), and 3,8-(OH)2-DBP (99.0% purity, Natreon, Inc) were used.
Three groups of adult C57/BL6 mice (n=8) were intragastrically supplemented with purified Shilajit (PS), 3,8-dihydroxy-dibenzo-α-pyrone (3,8-(OH)2-DBP) or placebo for 12 weeks. Body weight was measured every week. At the end of week 12, skeletal muscle tissue was harvested for gene profiling. Some tissue was stored for histology and HPLC analysis.
The control group of mice received DMSO in corn oil while the PS group received 100 mg of purified Shilajit/kg body weight of mice, dissolved in water and the DBP group received 10 mg of 3,8-(OH)2-DBP/kg body weight of mice, dissolved in DMSO/corn oil.
At week 12, the following tissues were collected: heart, lung, liver, brain, muscles, adipose tissue, skeletal muscle (vastus lateralis) and whole blood.

[2] = Study 2: body weight gain in mice on standard laboratory diet, 10 then 50 mg/kg DBPs; details: for less body weight gain / less gain in body weight: 10 mg/kg b.w.; for less body weight gain: at 8 weeks; for less gain in body weight: at four weeks; for less weight gain: 3 weeks after increasing the dose to 50 mg/kg b.w. (from 13th week)
Experimental: Since the results from Study 1 were totally unexpected, Study 2 was carried out in order to validate the results from Study 1 and also to determine if another bioactive of Shilajit, 3-hydroxy-dibenzo-α-pyrone, may have a similar beneficial effect on controlling body weight gain. Study 2 was carried out under similar experimental conditions as Study 1, using standard laboratory diet, except that a 10 mg/kg body weight dose was administered for the first 12 weeks and then the dose was increased to 50 mg/kg body weight from the 13th week through the 19th week. The primary purpose of increasing the dose is to find out if the response is dose proportional. […] It is interesting to note that 3 weeks after increasing the dose of DBPs to 50 mg/kg b.w., 3-OH-DBP group still maintained about 45% less weight gain while the 3,8-(OH)2-DBP group retained only about 10% less weight gain. […] The secondary purpose of increasing the dose is to find out if increased dose is toxic. Different tissues were collected from the mice and toxicological examination will be conducted.

[3] = Study 3: body weight gain in mice on high fat diet, later switched to standard diet; details: starting at 14 weeks, after switching to standard laboratory diet
Experimental: Since the Studies 1 and 2 were carried out with standard laboratory diet, it was imperative to do a study with high fat diet fed mice. Study 3 was conducted using such a diet (Bio-Serve Cat# 534282, 36% fat). After 11 weeks, the high fat diet was replaced with the standard laboratory diet. […] However, starting at 14 weeks after switching to the standard laboratory diet, there is a trend in both the DBP groups for less weight gain compared to the placebo group. […] Thus, it is possible that the DBPs, especially the 3-OH-DBP, may have the potential to control body weight gain in individuals on fatty diet as well, though at a slower pace than in individuals on normal diet.

| Structure (SMILES) | weight gained in 90 days ([1]; 10 mg/kg body weight in DMSO/corn oil, intragastric, standard laboratory diet, 90 days) | overt signs of health compromise ([1]; 10 mg/kg body weight, 12 weeks) | age-dependent gain in body weight ([1]; standard laboratory diet/conditions) | less body weight gain [2] | less gain in body weight [2] | less weight gain [2] | trend for less weight gain compared to placebo [3] |
| --- | --- | --- | --- | --- | --- | --- | --- |
| O=c1oc2cc(O)ccc2c2ccc(O)cc12 [3,8-(OH)2-DBP, 3,8-dihydroxy-dibenzo-α-pyrone] | about 7.5% | no overt signs of health compromise | significant decrease | about 50% | ~40% | about 10% |  |
| O=c1oc2cc(O)ccc2c2ccccc12 [3-OH-DBP, 3-hydroxy-dibenzo-α-pyrone] |  |  |  | about 50% | about 45% | about 45% | especially prominent |
